Measured values reported in the supplement of paper PMC10307832.

Columns and labels:
Experiment in all cases: relative viability (nuclei count vs DMSO), 5 days (fraction); higher = more cells survive
[1] = compound: C[C@@H](N)c1ccc(C(=O)Nc2ccnc3[nH]ccc23)cc1 + Nc1ncn([C@H]2C[C@H](O)[C@@H](CO)O2)c(=O)n1 [Decitabine] (partner 2 µM)
Outline: (§1)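 Five library-drug doses in √10 steps were combined with a fixed anchor-drug dose, or a single drug was given alone, by pin tool to lung cancer cell lines in 1536-well plates the day after seeding. Nuclei were stained and counted after 5 days. Relative viability is the nuclei count in treated wells over that in vehicle wells, taken as the median of duplicate plates.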

[2] = compound: C[C@@H](N)c1ccc(C(=O)Nc2ccnc3[nH]ccc23)cc1 + Cc1cc(Nc2cc(N3CCN(C)CC3)nc(Sc3ccc(NC(=O)C4CC4)cc3)n2)n[nH]1 [Tozasertib] (partner 0.1 µM)
Outline: as §1

[3] = compound: C1CNCCC1C2=CC(=NN2)C3=CC=NC=C3 + COc1cc2c(Oc3ccc(NC(=O)C4(C(=O)Nc5ccc(F)cc5)CC4)cc3F)ccnc2cc1OCCCN1CCOCC1 [Foretinib] (partner 0.25 µM)
Outline: as §1

[4] = compound: C1CNCCC1C2=CC(=NN2)C3=CC=NC=C3 + CS(=O)(=O)CCNCc1ccc(-c2ccc3ncnc(Nc4ccc(OCc5cccc(F)c5)c(Cl)c4)c3c2)o1 [Lapatinib] (partner 2 µM)
Outline: as §1

NCI-H838
relative viability ([1]; first compound 0.04 µM): 0.482
relative viability ([1]; first compound 0.1265 µM): 0.47
relative viability ([1]; first compound 0.4 µM): 0.466
relative viability ([1]; first compound 1.265 µM): 0.415
relative viability ([1]; first compound 4 µM): 0.3
relative viability ([2]; first compound 0.04 µM): 0.268
relative viability ([2]; first compound 0.1265 µM): 0.281
relative viability ([2]; first compound 0.4 µM): 0.224
relative viability ([2]; first compound 1.265 µM): 0.219
relative viability ([2]; first compound 4 µM): 0.189
relative viability ([3]; first compound 0.08 µM): 1.03
relative viability ([3]; first compound 0.8 µM): 0.996
relative viability ([3]; first compound 2.53 µM): 1.08
relative viability ([3]; first compound 8 µM): 0.996
relative viability ([4]; first compound 0.08 µM): 0.906
relative viability ([4]; first compound 0.8 µM): 0.97
relative viability ([4]; first compound 2.53 µM): 1.07
relative viability ([4]; first compound 8 µM): 0.895

NCI-H1355
relative viability ([1]; first compound 0.04 µM): 0.343
relative viability ([1]; first compound 0.1265 µM): 0.332
relative viability ([1]; first compound 0.4 µM): 0.317
relative viability ([1]; first compound 1.265 µM): 0.306
relative viability ([1]; first compound 4 µM): 0.322
relative viability ([2]; first compound 0.04 µM): 0.605
relative viability ([2]; first compound 0.1265 µM): 0.552
relative viability ([2]; first compound 0.4 µM): 0.562
relative viability ([2]; first compound 1.265 µM): 0.565
relative viability ([2]; first compound 4 µM): 0.555
relative viability ([3]; first compound 0.08 µM): 0.906
relative viability ([3]; first compound 0.8 µM): 0.938
relative viability ([3]; first compound 2.53 µM): 1.05
relative viability ([3]; first compound 8 µM): 0.923
relative viability ([4]; first compound 0.08 µM): 0.971
relative viability ([4]; first compound 0.8 µM): 0.948
relative viability ([4]; first compound 2.53 µM): 1
relative viability ([4]; first compound 8 µM): 0.935

NCI-H1395
relative viability ([1]; first compound 0.04 µM): 0.712
relative viability ([1]; first compound 0.1265 µM): 0.697
relative viability ([1]; first compound 0.4 µM): 0.725
relative viability ([1]; first compound 4 µM): 0.642
relative viability ([2]; first compound 0.04 µM): 0.811
relative viability ([2]; first compound 0.1265 µM): 0.749
relative viability ([2]; first compound 0.4 µM): 0.739
relative viability ([2]; first compound 1.265 µM): 0.805
relative viability ([2]; first compound 4 µM): 0.656
relative viability ([3]; first compound 0.08 µM): 0.982
relative viability ([3]; first compound 0.8 µM): 0.821
relative viability ([3]; first compound 2.53 µM): 1.15
relative viability ([3]; first compound 8 µM): 1.04
relative viability ([4]; first compound 0.08 µM): 0.886
relative viability ([4]; first compound 0.8 µM): 0.876
relative viability ([4]; first compound 2.53 µM): 0.987
relative viability ([4]; first compound 8 µM): 1.18

NCI-H1437
relative viability ([1]; first compound 0.04 µM): 0.526
relative viability ([1]; first compound 0.1265 µM): 0.572
relative viability ([1]; first compound 0.4 µM): 0.541
relative viability ([1]; first compound 1.265 µM): 0.602
relative viability ([1]; first compound 4 µM): 0.591
relative viability ([2]; first compound 0.04 µM): 0.462
relative viability ([2]; first compound 0.1265 µM): 0.433
relative viability ([2]; first compound 0.4 µM): 0.448
relative viability ([2]; first compound 1.265 µM): 0.436
relative viability ([2]; first compound 4 µM): 0.408
relative viability ([3]; first compound 0.08 µM): 1.21
relative viability ([3]; first compound 0.8 µM): 1.32
relative viability ([3]; first compound 2.53 µM): 1.25
relative viability ([3]; first compound 8 µM): 1.28
relative viability ([4]; first compound 0.08 µM): 0.765
relative viability ([4]; first compound 0.8 µM): 0.912
relative viability ([4]; first compound 2.53 µM): 0.827
relative viability ([4]; first compound 8 µM): 0.769

NCI-H1650
relative viability ([1]; first compound 0.04 µM): 0.379
relative viability ([1]; first compound 0.1265 µM): 0.542
relative viability ([1]; first compound 0.4 µM): 0.51
relative viability ([1]; first compound 1.265 µM): 0.431
relative viability ([1]; first compound 4 µM): 0.447
relative viability ([2]; first compound 0.04 µM): 0.386
relative viability ([2]; first compound 0.1265 µM): 0.483
relative viability ([2]; first compound 0.4 µM): 0.394
relative viability ([2]; first compound 1.265 µM): 0.291
relative viability ([2]; first compound 4 µM): 0.37
relative viability ([3]; first compound 0.08 µM): 0.798
relative viability ([3]; first compound 0.8 µM): 0.98
relative viability ([3]; first compound 2.53 µM): 1.16
relative viability ([3]; first compound 8 µM): 1.21
relative viability ([4]; first compound 0.08 µM): 0.561
relative viability ([4]; first compound 0.8 µM): 0.751
relative viability ([4]; first compound 2.53 µM): 0.821
relative viability ([4]; first compound 8 µM): 0.736

NCI-H1651
relative viability ([1]; first compound 0.04 µM): 0.648
relative viability ([1]; first compound 0.1265 µM): 0.619
relative viability ([1]; first compound 0.4 µM): 0.668
relative viability ([1]; first compound 1.265 µM): 0.661
relative viability ([1]; first compound 4 µM): 0.656
relative viability ([2]; first compound 0.04 µM): 0.844
relative viability ([2]; first compound 0.1265 µM): 0.602
relative viability ([2]; first compound 0.4 µM): 0.798
relative viability ([2]; first compound 1.265 µM): 0.871
relative viability ([2]; first compound 4 µM): 0.885
relative viability ([3]; first compound 0.08 µM): 0.763
relative viability ([3]; first compound 0.8 µM): 0.839
relative viability ([3]; first compound 2.53 µM): 0.7
relative viability ([3]; first compound 8 µM): 0.851
relative viability ([4]; first compound 0.08 µM): 0.673
relative viability ([4]; first compound 0.8 µM): 0.863
relative viability ([4]; first compound 2.53 µM): 0.724
relative viability ([4]; first compound 8 µM): 0.949

NCI-H1666
relative viability ([1]; first compound 0.04 µM): 0.83
relative viability ([1]; first compound 0.1265 µM): 0.768
relative viability ([1]; first compound 0.4 µM): 0.865
relative viability ([1]; first compound 1.265 µM): 0.781
relative viability ([1]; first compound 4 µM): 0.855
relative viability ([2]; first compound 0.04 µM): 0.605
relative viability ([2]; first compound 0.1265 µM): 0.618
relative viability ([2]; first compound 0.4 µM): 0.63
relative viability ([2]; first compound 1.265 µM): 0.698
relative viability ([2]; first compound 4 µM): 0.593
relative viability ([3]; first compound 0.08 µM): 0.887
relative viability ([3]; first compound 0.8 µM): 0.987
relative viability ([3]; first compound 2.53 µM): 0.963
relative viability ([3]; first compound 8 µM): 1.03
relative viability ([4]; first compound 0.08 µM): 0.522
relative viability ([4]; first compound 0.8 µM): 0.739
relative viability ([4]; first compound 2.53 µM): 0.845
relative viability ([4]; first compound 8 µM): 0.625

NCI-H1734
relative viability ([1]; first compound 0.04 µM): 0.477
relative viability ([1]; first compound 0.1265 µM): 0.506
relative viability ([1]; first compound 0.4 µM): 0.53
relative viability ([1]; first compound 1.265 µM): 0.52
relative viability ([1]; first compound 4 µM): 0.462
relative viability ([2]; first compound 0.04 µM): 0.263
relative viability ([2]; first compound 0.1265 µM): 0.247
relative viability ([2]; first compound 0.4 µM): 0.259
relative viability ([2]; first compound 1.265 µM): 0.213
relative viability ([2]; first compound 4 µM): 0.202
relative viability ([3]; first compound 0.08 µM): 0.81
relative viability ([3]; first compound 0.8 µM): 0.919
relative viability ([3]; first compound 2.53 µM): 0.992
relative viability ([3]; first compound 8 µM): 0.836
relative viability ([4]; first compound 0.08 µM): 0.856
relative viability ([4]; first compound 0.8 µM): 1.07
relative viability ([4]; first compound 2.53 µM): 1.15
relative viability ([4]; first compound 8 µM): 1.07

NCI-H1755
relative viability ([1]; first compound 0.04 µM): 0.728
relative viability ([1]; first compound 0.1265 µM): 0.728
relative viability ([1]; first compound 0.4 µM): 0.712
relative viability ([1]; first compound 1.265 µM): 0.76
relative viability ([1]; first compound 4 µM): 0.684
relative viability ([2]; first compound 0.04 µM): 0.568
relative viability ([2]; first compound 0.1265 µM): 0.602
relative viability ([2]; first compound 0.4 µM): 0.725
relative viability ([2]; first compound 1.265 µM): 0.581
relative viability ([2]; first compound 4 µM): 0.559
relative viability ([3]; first compound 0.08 µM): 0.968
relative viability ([3]; first compound 2.53 µM): 0.908
relative viability ([3]; first compound 8 µM): 0.897
relative viability ([4]; first compound 0.08 µM): 1.03
relative viability ([4]; first compound 0.8 µM): 0.973
relative viability ([4]; first compound 2.53 µM): 1.07
relative viability ([4]; first compound 8 µM): 1
